Reference: PMC4971072, “Chemically Homogenous Compounds with Antagonistic Properties at All α1-Adrenoceptor Subtypes but not β1-Adrenoceptor Attenuate Adrenaline-Induced Arrhythmia in Rats” (Frontiers in Pharmacology, 2016)
Structures can show the parent of a compound that is named as a salt.

Experiments:
[1] = tested on: adrenaline-induced arrhythmia in rats; assay: Prophylactic antiarrhythmic activity in adrenaline-induced arrhythmia; type: in vivo, rat; conditions: for ED50: Rattus norvegicus, read-out: ED50 (confidence limits)
Protocol: The studied compounds were administered i.p. 45 min before the injection of adrenaline, calcium chloride, or barium chloride. The electrocardiogram (ECG) was recorded during the first 2 min as well as in the 5th, 10th, and 15th min after the arrhythmogen injection. […]

α1D-adrenoreceptors = biological target: T1, α1D-adrenoreceptors (Rattus norvegicus, UniProt P23944); assay: Functional bioassay, isolated rat aorta, noradrenaline contraction; type: biochemical; design: had aorta removed, denuded of endothelium and incubated in the Krebs-Henseleit solution; from tissue; host or cells: isolated rat aorta rings; conditions: noradrenaline as agonist; for Kb: read-out: pA2 ± S.E.M., α1D (converted)
T1 sequence (P23944 1-561): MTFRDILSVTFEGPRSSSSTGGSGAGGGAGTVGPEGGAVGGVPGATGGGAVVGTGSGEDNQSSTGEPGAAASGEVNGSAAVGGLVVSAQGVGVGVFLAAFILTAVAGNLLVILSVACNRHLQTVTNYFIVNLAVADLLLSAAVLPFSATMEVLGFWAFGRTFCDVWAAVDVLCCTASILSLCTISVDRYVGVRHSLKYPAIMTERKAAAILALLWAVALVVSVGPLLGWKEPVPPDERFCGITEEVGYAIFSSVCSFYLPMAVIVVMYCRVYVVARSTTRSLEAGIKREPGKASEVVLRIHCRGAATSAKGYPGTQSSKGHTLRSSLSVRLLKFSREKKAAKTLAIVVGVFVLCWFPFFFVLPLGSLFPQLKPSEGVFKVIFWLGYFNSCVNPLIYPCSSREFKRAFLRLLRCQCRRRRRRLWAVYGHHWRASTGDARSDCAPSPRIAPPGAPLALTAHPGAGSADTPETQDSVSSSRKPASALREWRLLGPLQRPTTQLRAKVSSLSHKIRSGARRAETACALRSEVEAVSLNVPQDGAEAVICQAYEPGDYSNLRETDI
Protocol: Finally, the influence on α1D-adrenoreceptors was investigated using the isolated rat aorta. […] The aorta rings were maintained at optimal tension of 2.0 g. During 3 h of equilibration tissues were stimulated with noradrenaline three times (0.3 μM). Two cumulative concentration-response curves to noradrenaline, at an interval of 60 min, were established on each tissue both in the presence and absence of antagonist. The incubation with antagonists went on for 30 min. The experiments were carried out in the constant presence of yohimbine (0.1 μM) and propranolol (1 μM) to block α2- and β-adrenoceptors, respectively.
Data are means ± S.E.M. of at least 4 separate experiments. To establish Hill slopes for the agonist concentration–response curves and calculate EC50 values, curves were fitted to all the data by non-linear regression. The EC50 value in the presence and absence of antagonists was used to ascertain the concentration ratio (CR). Schild analysis was performed.

[2] = tested on: lipid peroxidation in rat brain homogenate; assay: Lipid peroxidation in rat brain homogenate (TBARS), antioxidant effect; type: biochemical; conditions: 10^−3 M; for % reduction of absorbance (% antioxidant activity) / Absorbance: TBARs at 532 nm
Protocol: The rat brain homogenate containing 10 mg tissue/ml was prepared in 0.9% saline. The rates of membrane lipid peroxidation were measured by the formation of thiobarbituric acid reactive substances (TBARS). Rat brain homogenates (1 ml) were incubated at 37°C for 5 min with 10 μl of a tested compound or vehicle. Lipid peroxidation was initiated by the addition of 50 μl of 0.5 mM FeCl2 and 50 μl of 2.0 mM ascorbic acid. After 30 min of incubation, the reaction was stopped by adding 0.1 ml of 0.2% butylated hydroxytoluene (BHT). Thiobarbituric acid reagent was then added and the mixture was heated for 15 min in a boiling water bath.

β1-adrenergic receptor = biological target: T2, β1-adrenergic receptor (Rattus norvegicus, UniProt P18090); assay: β1-adrenoceptor radioligand binding assay ([3H]-CGP-12177, rat cerebral cortex); conditions: read-out: Adrenergic receptors Ki β1
T2 construct: The brains were homogenized in 20 volumes of an ice-cold 50 mM Tris-HCl buffer; from tissue; host or cells: rat cerebral cortex membranes
T2 sequence (P18090 whole entry): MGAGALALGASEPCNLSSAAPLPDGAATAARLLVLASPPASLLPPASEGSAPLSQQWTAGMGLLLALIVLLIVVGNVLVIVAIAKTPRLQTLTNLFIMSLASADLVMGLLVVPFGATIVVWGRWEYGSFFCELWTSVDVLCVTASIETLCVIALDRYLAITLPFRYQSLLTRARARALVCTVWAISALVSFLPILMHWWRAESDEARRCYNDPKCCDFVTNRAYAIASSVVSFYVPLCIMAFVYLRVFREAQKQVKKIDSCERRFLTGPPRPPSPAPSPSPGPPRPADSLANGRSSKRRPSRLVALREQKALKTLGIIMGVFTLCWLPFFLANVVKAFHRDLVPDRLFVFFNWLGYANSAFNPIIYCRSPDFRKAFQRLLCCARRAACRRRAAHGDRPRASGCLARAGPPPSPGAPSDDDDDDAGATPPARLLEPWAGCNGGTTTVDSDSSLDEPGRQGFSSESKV
Protocol: The α1- and β1-adrenoceptor radioligand binding assay was performed on rat cerebral cortex. […] The cell pellet was resuspended in the Tris–HCl buffer and centrifuged again. Radioligand binding assays were performed in plates (MultiScreen/Millipore). […] The incubation was terminated by rapid filtration through glass fiber filters (Whatman GF/C) using a vacuum manifold (Millipore). The filters were then washed twice with the assay buffer and placed in scintillation vials with a liquid scintillation cocktail. […] All the assays were made in duplicate and the inhibitory constants (Ki) were estimated.
LO–labeled ligand concentration, KD–dissociation constant of labeled ligand

[3] = dose 0.1 mg/kg i.p. 45 min before adrenaline 20 μg/kg i.v.
[4] = dose 0.2 mg/kg i.p. 45 min before adrenaline 20 μg/kg i.v.
[5] = dose 0.3 mg/kg i.p. 45 min before adrenaline 20 μg/kg i.v.
[6] = dose 2.5 mg/kg i.p. 45 min before adrenaline 20 μg/kg i.v.
[7] = dose 5 mg/kg i.p. 45 min before adrenaline 20 μg/kg i.v.
[8] = dose 10 mg/kg i.p. 45 min before adrenaline 20 μg/kg i.v.

Row | Compound | ED50 [1] [mg/kg] | Bigeminy (%) [1, 3] [%] | Blocks (%) [1, 3] [%] | Bradycardia (%) [1, 3] [%] | Extrasystoles (%) [1, 3] [%] | Bigeminy (%) [1, 4] [%] | Blocks (%) [1, 4] [%] | Bradycardia (%) [1, 4] [%] | Extrasystoles (%) [1, 4] [%] | Blocks (%) [1, 5] [%] | Bradycardia (%) [1, 5] [%] | Extrasystoles (%) [1, 5] [%] | Schild slope ± S.E.M., α1D (α1D-adrenoreceptors) | Kb (α1D-adrenoreceptors) [nM] | inhibition of lipid peroxidation (in words) [2] | % reduction of absorbance (% antioxidant activity) [2] [%] | Absorbance [2] | Ki (β1-adrenergic receptor) [nM] | Bigeminy (%) [1, 6] [%] | Blocks (%) [1, 6] [%] | further results
1 | COc1ccccc1N1CCN(CCCOc2c(C)cc(C)cc2C)CC1 [HBK-18, 1N-[3-(2,4,6-trimethylphenoxy)propyl]-4N-(2-methoxyphenyl)piperazine hydrochloride] | 0.18 | 50.0 | 66.7 | 66.7 | 83.3 | 16.7 | 33.0 | 50.0 | 50.0 | 16.3 | 16.3 | 16.7 | 1.01 ± 0.05 | 1.2 | inhibited lipid peroxidation | 13.41 | 0.781 ± 0.004 | > 10000 | – | – | –
2 | COc1ccccc1N1CCN(CCCOc2cc(C)ccc2Cl)CC1 [HBK-16, 1N-[3-(2-chloro-5-methylphenoxy)propyl]-4N-(2-methoxyphenyl)piperazine hydrochloride] | 0.2 | 33.3 | 50.0 | 66.7 | 83.3 | 16.7 | 33.3 | 50.0 | 33.3 | 16.7 | 33.3 | 16.7 | 1.11 ± 0.12 | 0.724 | inhibited lipid peroxidation | 16.63 | 0.752 ± 0.007 | > 10000 | – | – | –
3 | COc1ccccc1N1CCN(CCCOc2cc(C)cc(C)c2C)CC1 [HBK-19, 1N-[3-(2,3,5-trimethylphenoxy)propyl]-4N-(2-methoxyphenyl)piperazine hydrochloride] | 0.21 | 33.3 | 50.0 | 66.7 | 66.7 | 16.7 | 33.3 | 33.3 | 50.0 | 16.7 | 16.7 | 16.7 | 1.03 ± 0.09 | 4.9 | inhibited lipid peroxidation | 22.62 | 0.698 ± 0.007 | > 10000 | – | – | –
4 | COc1ccccc1N1CCN(CCOCCOc2c(C)cccc2Cl)CC1.Cl [HBK-15, 1-[(2-chloro-6-methylphenoxy)ethoxyethyl]-4-(2-methoxyphenyl)piperazine hydrochloride] | 4.8 | – | – | – | – | – | – | – | – | – | – | – | 1.09 ± 0.09 | 1.26 | inactive | 1.22 | 0.891 ± 0.008 | – | 33.3 | 66.7 | Bradycardia (%) [1, 6]: 66.7%; Extrasystoles (%) [1, 6]: 66.7%; Bigeminy (%) [1, 7]: 16.7%; Blocks (%) [1, 7]: 50.0%; Bradycardia (%) [1, 7]: 66.7%; Extrasystoles (%) [1, 7]: 50.0%; Bigeminy (%) [1, 8]: 16.7%; Blocks (%) [1, 8]: 33.3%; Bradycardia (%) [1, 8]: 50.0%; Extrasystoles (%) [1, 8]: 33.3%
5 | COc1ccccc1N1CCN(CCOCCOc2c(C)cccc2C)CC1.Cl [HBK-14, 1-[(2,6-dimethylphenoxy)ethoxyethyl]-4-(2-methoxyphenyl)piperazine hydrochloride] | 3.88 | – | – | – | – | – | – | – | – | – | – | – | 1.09 ± 0.10 | 1.38 | inactive | −4.10 | 0.939 ± 0.007 | – | 50.0 | 83.3 | Bradycardia (%) [1, 6]: 83.3%; Extrasystoles (%) [1, 6]: 100.0%; Bigeminy (%) [1, 7]: 33.3%; Blocks (%) [1, 7]: 33.3%; Bradycardia (%) [1, 7]: 50.0%; Extrasystoles (%) [1, 7]: 50.0%; Bigeminy (%) [1, 8]: 16.7%; Blocks (%) [1, 8]: 33.3%; Bradycardia (%) [1, 8]: 50.0%; Extrasystoles (%) [1, 8]: 16.7%
